Here are results for 18 compounds from patent publication US11718589B2, “Compositions and methods of modulating short-chain dehydrogenase” (CASE WESTERN RESERVE UNIVERSITY, priority 2017, dated 2023).

What is called IC50 is the midpoint of a concentration-inhibition curve.

For assay [1], the system named is PGE2 in A549 cell culture. Kind of assay: Induction of PGE2 in A549 cell culture. In kind it is cell-based. Conditions: A549 cells; for induction of PGE2 in A549 cell culture at 0.1 μM (fold): 0.1 μM compound; for induction of PGE2 in A549 cell culture at 2.5 μM (fold): 2.5 μM compound. Here is the method: This Example provides data on two groups (Table 1 and Table 2) of structural analogues of identified 15-PGDH inhibitors. Data provided is the IC50 of each compound for inhibiting enzymatic activity of recombinant 15-PGDH in an in vitro assay. Recombinant 15-PGDH is human unless otherwise specified. Additionally, the example provides data for selected compounds on induction of PGE2 in A549 cell culture administered 2.5 μM or 0.1 μM of the selected compound.

The target in assay [2] is recombinant 15-PGDH (Homo sapiens (Human), UniProt P15428). Kind of assay: Enzyme inhibition of recombinant 15-PGDH, in vitro assay. In kind it is biochemical. The settings on record: recombinant human 15-PGDH; read-out: Enzyme inhibition (IC50).
Chain of recombinant 15-PGDH (P15428 whole entry): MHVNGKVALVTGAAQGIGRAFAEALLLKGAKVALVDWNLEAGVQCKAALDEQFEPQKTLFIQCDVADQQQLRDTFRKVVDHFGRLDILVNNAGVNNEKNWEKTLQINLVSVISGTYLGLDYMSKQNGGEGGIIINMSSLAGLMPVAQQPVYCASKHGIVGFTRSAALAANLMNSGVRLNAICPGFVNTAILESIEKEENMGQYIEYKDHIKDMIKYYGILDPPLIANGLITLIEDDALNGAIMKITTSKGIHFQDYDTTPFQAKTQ

Each structure is given as a SMILES string. Some results are limits rather than exact numbers.

As to `COc1ccc(-c2cc(C(F)(F)F)n3nc(C(=O)N4CCCCC4)cc3n2)cc1` [1a], in assay [1], the “induction of PGE2 in A549 cell culture at 0.1 μM (fold)” value (“induction of PGE2 … at 0.1 μM (fold)” below) is 1.29 fold and the “induction of PGE2 in A549 cell culture at 2.5 μM (fold)” value (from here on “induction of PGE2 … at 2.5 μM (fold)”) was determined as 1.89 fold. Further, the IC50 in assay [2] is 24 nM. As to `O=C(c1ccc2nc(-c3ccccc3)c(-c3ccccc3)nc2c1)N1CCCCC1` [1b], in assay [1], the “induction of PGE2 … at 0.1 μM (fold)” value came to 1.11 fold and the “induction of PGE2 … at 2.5 μM (fold)” value is listed as 1.87 fold. As for `CCCC[S+]([O-])c1cc2nc(-c3ccc(OC)cc3)cc(C(F)(F)F)n2n1` (centres unmarked) [3a], in assay [1], the “induction of PGE2 … at 0.1 μM (fold)” value stood at 1.45 fold and the “induction of PGE2 … at 2.5 μM (fold)” value was determined as 2.13 fold. For `CCCC[S+]([O-])c1cc2nc(-c3ccc(OC)cc3)cc(-c3ccccc3)n2n1` (centres unmarked) [5a], in that order: 1.08 fold and 1.69 fold. On to `CCCC[S+]([O-])c1cc2nc(-c3ccc(OC)cc3)cc(-c3cnc(C)n3C)n2n1` (centres unmarked) [70a], for which, in assay [2], the half-inhibitory concentration (IC50) lay in the range of 100 to 500 nM. Same read-out and setting: the result for `COc1ccc(-c2cc(-c3cccn3C)n3nc(C(=O)N4CCCCC4)cc3n2)cc1` [71a] reads 20 to 100 nM. On the same count and under the same terms, next, `CCCC[S+]([O-])c1cc2nc(-c3ccc(OC)cc3)cc(-c3ccnn3C)n2n1` (centres unmarked) [72a]: 4 to 20 nM. Regarding `CCCC[S+]([O-])c1cc2nc(-c3ccc(OC)cc3)cc(-c3cn(C)nc3C)n2n1` (centres unmarked) [73a], in assay [2], the IC50 was 500 nM. For `CCCC[S+]([O-])c1cc2nc(-c3ccc(OC)cc3)cc(-c3c(C)nn(C)c3C)n2n1` (centres unmarked) [74a], the IC50 in assay [2] was 20 to 100 nM. For `CC1CCCN(C(=O)c2cc3nc(-c4ccc(Cl)cc4)cc(C(F)(F)F)n3n2)C1` (centres unmarked) [75a], the concentration for half-maximal inhibition (IC50) in assay [2] lay within 20 to 100 nM. For `CNC(=O)c1ccc(-c2cnc3ccc(C(=O)N4CCCCC4)cc3n2)cc1` [80b], the IC50 in assay [2] was 4 nM. Still for that read-out and setting: next, `CC(C)(O)Cn1ccc2cc(-c3cnc4ccc(C(=O)N5CCCCC5)cc4n3)ccc2c1=O` [89b]: ~4 nM; `Cn1nccc1-c1nc(-c2ccccc2)nc2cc(C(=O)N3CCCCC3)ccc12` [90b]: ~4 nM; `CCOC(=O)c1[nH]c2ccc(-c3cnc4ccc(C(=O)N5CCCCC5)cc4n3)cc2c1C` [91b]: ~4 nM. On to `O=C(c1ccc2ncc(-c3ccc4c(=O)[nH]cc(Cl)c4c3)nc2c1)N1CCCCC1` [92b], for which the IC50 in assay [2] is < 4 nM. For `Cc1c(C(N)=O)[nH]c2ccc(-c3cnc4ccc(C(=O)N5CCCCC5)cc4n3)cc12` [93b], in assay [2], the IC50 was < 4 nM. On the same count and under the same terms, the result for `CNC(=O)c1[nH]c2ccc(-c3cnc4ccc(C(=O)N5CCCCC5)cc4n3)cc2c1C` [94b] reads < 4 nM.

For the compound `Nc1nc2ccc(-c3cnc4ccc(C(=O)N5CCCCC5)cc4n3)cc2s1` [95b], the IC50 in assay [2] is < 4 nM.
